No end group written: not given here.
These substances were tested against T1, CR2 receptor on Raji cells (Homo sapiens, UniProt P20023) (assay: Inhibition of direct binding of C3-coated Zymosan to cells (rosette count)). Settings: polypeptide zero to 200 ug in 100 ul, 37 C 30 min, amount behind the value not stated.
T1 construct: endogenous in cells; host or cells: Raji cells (human B lymphoblastoid, ATCC CCL 86)
T1 sequence (P20023 21-1033): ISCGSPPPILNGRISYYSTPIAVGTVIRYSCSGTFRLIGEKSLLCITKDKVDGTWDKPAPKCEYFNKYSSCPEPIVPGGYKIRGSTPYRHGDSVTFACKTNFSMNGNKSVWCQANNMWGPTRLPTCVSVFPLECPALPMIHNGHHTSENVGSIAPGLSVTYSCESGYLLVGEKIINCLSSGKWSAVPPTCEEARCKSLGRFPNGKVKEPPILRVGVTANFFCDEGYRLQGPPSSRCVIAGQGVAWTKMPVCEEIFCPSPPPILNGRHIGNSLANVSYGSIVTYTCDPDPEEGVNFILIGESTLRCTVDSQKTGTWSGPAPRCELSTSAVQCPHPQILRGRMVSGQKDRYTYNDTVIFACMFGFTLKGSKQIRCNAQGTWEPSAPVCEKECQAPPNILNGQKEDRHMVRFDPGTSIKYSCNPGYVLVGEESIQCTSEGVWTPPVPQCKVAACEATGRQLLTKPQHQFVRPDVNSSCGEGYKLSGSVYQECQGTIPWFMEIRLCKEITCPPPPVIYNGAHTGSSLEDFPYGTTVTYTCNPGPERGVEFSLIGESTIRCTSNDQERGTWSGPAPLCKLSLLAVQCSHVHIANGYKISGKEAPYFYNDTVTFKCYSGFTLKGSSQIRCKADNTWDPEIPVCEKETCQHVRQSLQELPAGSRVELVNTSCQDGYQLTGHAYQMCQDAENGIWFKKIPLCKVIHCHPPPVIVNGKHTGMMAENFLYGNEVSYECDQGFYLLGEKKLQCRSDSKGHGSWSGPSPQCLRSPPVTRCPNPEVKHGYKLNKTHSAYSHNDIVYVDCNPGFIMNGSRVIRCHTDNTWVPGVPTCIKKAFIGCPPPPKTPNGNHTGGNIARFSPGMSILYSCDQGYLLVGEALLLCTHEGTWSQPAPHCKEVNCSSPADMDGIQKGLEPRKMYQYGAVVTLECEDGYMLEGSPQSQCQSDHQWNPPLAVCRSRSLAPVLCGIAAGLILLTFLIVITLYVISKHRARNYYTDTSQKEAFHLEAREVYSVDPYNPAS
Description: Fresh blood from a healthy donor was collected and maintained at room temperature for 2 hours. Then the blood was centrifuged at 2000 x g for about 10 min and the resulting supernatant was collected. Five mg of Zymosan A particles (Sigma Chemical Co., St. Louis, Mo.) were boiled for 30 min in 20 ml of 150 mM NaCl and washed three times in phosphate-buffered saline (PBS) to form activated Zymosan. One mg of activated Zymosan particles was admixed with 0.5 ml of blood supernatant and maintained at 37 C. for 30 min, and then was washed 3 times in PBS. The washed particles were then resuspended in PBS at a concentration of 0.5 mg/ml to form a C3 -coated Zymosan composition.
Cultures containing 10^5 Raji or HSB2 cells were admixed with varying amounts (zero to 200 ug) of the polypeptides shown in Table 2 in a volume of 100 microliters (ul) of culture medium and the admixture was maintained at 37C for 30 min to allow CR2 ligand polypeptides to bind any CR2 receptor present on the cells. Thereafter, 50 ul of C3 -coated Zymosan composition was added to each culture, the cultures were subjected to centrifugation for 1 min at 600×g and then maintained at 37 C. for 30 min. The maintained cultures were then washed with prewarmed culture medium to rinse off non-bound particles. Washed cultures were observed using a microscope to detect and count the number of particles (rosettes) attached per cell. More than 3 rosettes per cell was counted as C3 specific binding. Inhibition is expressed as the percent decrease in bound rosettes when comparing binding in the presence or absence of admixed polypeptide.
With LYNVEAT [LYNVEAT] the “Inhibition of direct binding of C3-coated Zymosan to cells (percent decrease in bound rosettes)” value was 70%. NSGVEA [NSGVEA] was tested, and the “Inhibition of direct binding of C3-coated Zymosan to cells (percent decrease in bound rosettes)” value was 35%. SRRGDMS [SRRGDMS] was tested, and the “Inhibition of direct binding of C3-coated Zymosan to cells (percent decrease in bound rosettes)” value was 0%.

— patent publication US5331090A, “CR2 ligand compositions and methods for modulating immune cell functions” (California Institute of Biological Research, priority 1989, dated 1994)
